IC50 data for seven molecules are collected here from US20230365541A1, “INHIBITOR OF ENHANCER OF ZESTE HOMOLOGUE 2, AND USE THEREOF” (HAISCO PHARMACEUTICALS PTE. LTD., priority 2020, published 2023).

For test [1], the system named is SU-DHL-6 cells. Kind of test: SU-DHL-6 cell proliferation test. The test is classed as cell-based, human. Particulars: incubated for 14 days. The procedure: SU-DHL-6 cells are human B-cell lymphoma cell lines purchased from ATCC and cultured under the following conditions: RPMI-1640+10% FBS+1% double antibody in a 37° C., 5% CO2 incubator. The cells were plated in a 12-well plate, with a cell concentration of 1×10^5 cells/mL. After the cells were plated, the compounds at different concentrations were added and cultured in a 37° C., 5% CO2 incubator. The cells were counted every 3-4 days (Countstar automated cell counter), centrifuged to remove the supernatant, re-diluted to 1×10^5 cells/mL and plated, and then the compounds at different concentrations were further added. After the mixture was incubated for 14 days and the cells were counted, the test was terminated, and the IC50 values were calculated by using the Origen9.2 software.

In test [2] the target is EZH2 (Homo sapiens (Human), UniProt Q15910). Kind of test: Test method for EZH2 enzyme activity. To be noted: H3K27(21-44) and [3H]-SAM. The test is classed as biochemical. In outline:
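EZH2 (3 nM final) preincubated 15 min with compound in Tris-HCl pH 9.0 buffer, then H3K27(21-44) peptide and [3H]-SAM added (mixture at 200 nM and 100 nM) for 60 min at room temperature. Reaction quenched with cold SAM; flashplate scintillation read, inhibition normalized to controls and IC50 fitted.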

EZH2, sequence (Q15910 other isoform, or with tags, fused parts or gaps isoform Q15910-2): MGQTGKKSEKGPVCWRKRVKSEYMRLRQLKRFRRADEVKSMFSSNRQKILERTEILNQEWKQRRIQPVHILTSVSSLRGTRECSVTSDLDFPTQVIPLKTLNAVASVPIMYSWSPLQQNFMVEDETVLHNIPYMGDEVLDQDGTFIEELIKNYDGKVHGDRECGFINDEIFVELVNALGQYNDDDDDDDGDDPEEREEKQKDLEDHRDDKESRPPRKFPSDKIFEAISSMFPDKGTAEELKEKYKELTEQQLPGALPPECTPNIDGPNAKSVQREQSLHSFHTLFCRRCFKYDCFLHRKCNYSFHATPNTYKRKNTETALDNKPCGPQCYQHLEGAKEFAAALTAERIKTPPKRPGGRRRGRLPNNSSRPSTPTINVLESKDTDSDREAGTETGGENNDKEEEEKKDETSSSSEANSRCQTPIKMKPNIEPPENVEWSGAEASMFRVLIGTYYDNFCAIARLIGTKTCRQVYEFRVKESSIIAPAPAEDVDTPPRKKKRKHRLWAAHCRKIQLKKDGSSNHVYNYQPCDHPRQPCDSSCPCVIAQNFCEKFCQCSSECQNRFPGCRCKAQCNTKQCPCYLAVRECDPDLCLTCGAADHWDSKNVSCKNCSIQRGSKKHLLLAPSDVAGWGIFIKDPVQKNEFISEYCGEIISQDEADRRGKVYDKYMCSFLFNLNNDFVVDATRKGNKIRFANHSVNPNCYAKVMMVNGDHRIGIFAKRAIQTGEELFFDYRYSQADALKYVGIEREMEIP
EZH2, sequence (O75530 2-441 partner): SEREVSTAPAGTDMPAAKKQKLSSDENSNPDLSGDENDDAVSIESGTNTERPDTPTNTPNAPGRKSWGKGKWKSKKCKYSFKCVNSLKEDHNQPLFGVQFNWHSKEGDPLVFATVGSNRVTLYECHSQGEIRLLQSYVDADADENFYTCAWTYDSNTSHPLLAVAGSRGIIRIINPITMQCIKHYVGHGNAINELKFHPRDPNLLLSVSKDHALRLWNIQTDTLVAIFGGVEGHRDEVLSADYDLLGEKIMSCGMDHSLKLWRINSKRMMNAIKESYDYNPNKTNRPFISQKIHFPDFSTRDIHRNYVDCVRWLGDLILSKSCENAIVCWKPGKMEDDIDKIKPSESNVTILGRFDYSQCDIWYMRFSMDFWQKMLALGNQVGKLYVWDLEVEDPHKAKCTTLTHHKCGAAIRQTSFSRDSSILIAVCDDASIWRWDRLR
EZH2, sequence (Q15022 2-739 partner): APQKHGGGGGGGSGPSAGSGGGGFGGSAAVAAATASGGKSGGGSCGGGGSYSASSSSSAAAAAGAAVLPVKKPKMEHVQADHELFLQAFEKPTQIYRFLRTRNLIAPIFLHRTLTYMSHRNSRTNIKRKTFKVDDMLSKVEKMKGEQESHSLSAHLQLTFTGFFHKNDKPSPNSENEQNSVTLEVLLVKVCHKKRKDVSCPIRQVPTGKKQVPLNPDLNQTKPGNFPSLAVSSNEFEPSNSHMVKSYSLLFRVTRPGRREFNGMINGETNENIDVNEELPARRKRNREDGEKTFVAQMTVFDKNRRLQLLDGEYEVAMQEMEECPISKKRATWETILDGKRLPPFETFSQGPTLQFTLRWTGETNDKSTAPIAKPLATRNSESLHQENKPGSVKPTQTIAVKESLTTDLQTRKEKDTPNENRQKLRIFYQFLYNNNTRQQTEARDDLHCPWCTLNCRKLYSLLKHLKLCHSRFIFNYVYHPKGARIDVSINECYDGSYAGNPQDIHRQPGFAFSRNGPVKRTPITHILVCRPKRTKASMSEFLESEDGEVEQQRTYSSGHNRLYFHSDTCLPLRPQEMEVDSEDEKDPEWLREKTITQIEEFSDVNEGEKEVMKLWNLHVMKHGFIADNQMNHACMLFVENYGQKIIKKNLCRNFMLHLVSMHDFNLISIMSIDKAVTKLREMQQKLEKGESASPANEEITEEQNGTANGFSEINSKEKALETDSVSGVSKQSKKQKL
EZH2, sequence (Q09028 2-425 partner): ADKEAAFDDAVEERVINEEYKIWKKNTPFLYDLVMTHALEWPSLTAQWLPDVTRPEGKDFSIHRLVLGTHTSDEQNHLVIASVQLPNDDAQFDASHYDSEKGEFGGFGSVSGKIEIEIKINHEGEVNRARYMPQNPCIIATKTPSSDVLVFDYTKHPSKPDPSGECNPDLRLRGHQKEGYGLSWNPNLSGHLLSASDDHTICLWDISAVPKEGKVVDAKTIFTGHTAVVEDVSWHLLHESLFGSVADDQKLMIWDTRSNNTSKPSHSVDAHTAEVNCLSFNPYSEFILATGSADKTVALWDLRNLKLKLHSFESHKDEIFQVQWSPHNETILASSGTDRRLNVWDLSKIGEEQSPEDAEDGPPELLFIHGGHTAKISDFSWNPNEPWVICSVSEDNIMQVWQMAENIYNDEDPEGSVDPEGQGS
EZH2, sequence (Q6ZN18 whole entry partner): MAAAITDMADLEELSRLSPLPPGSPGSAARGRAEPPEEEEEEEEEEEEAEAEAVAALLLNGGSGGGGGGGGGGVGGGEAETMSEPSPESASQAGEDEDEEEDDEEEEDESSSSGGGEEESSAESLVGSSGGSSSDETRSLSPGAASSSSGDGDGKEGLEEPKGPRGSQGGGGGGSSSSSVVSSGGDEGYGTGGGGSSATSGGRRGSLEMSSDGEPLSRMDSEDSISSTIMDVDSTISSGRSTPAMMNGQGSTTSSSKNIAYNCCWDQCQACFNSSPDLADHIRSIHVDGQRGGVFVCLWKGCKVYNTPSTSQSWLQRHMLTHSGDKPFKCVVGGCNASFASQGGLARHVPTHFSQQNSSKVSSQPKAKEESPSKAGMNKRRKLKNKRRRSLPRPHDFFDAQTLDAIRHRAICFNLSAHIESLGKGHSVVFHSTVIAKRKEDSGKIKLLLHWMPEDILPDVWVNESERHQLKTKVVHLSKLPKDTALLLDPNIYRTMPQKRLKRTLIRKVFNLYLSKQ

The IC50 is the concentration at which inhibition is half-maximal. On to `CSc1cc(C)[nH]c(=O)c1CNC(=O)c1cc(Cl)c2c(c1C)OC(C)([C@H]1CC[C@H](N[C@H]3C[C@@H](F)C3)CC1)O2` (single isomer, unassigned) [Compound 41, isomer 1, 7-chloro-2-(4-((cis-3-fluorocyclobutyl)amino)cyclohexyl)-2,4-dimethyl-N-((6-methyl-4-(methylthio)-2-oxo-1,2-dihydropyridin-3-yl)methyl)benzo[d][1,3]dioxole-5-carboxamide], for which the IC50 in test [1] (Homo sapiens, SU-DHL-6, 336 h) was found to be 35.3 nM; in test [2], 0.52 nM.
Consider `CSc1cc(C)[nH]c(=O)c1CNC(=O)c1cc(Cl)c2c(c1C)OC(C)([C@H]1CC[C@H](N[C@H]3C[C@@H](F)C3)CC1)O2` (single isomer, unassigned) [Compound 41, isomer 2, 7-chloro-2-(4-((cis-3-fluorocyclobutyl)amino)cyclohexyl)-2,4-dimethyl-N-((6-methyl-4-(methylthio)-2-oxo-1,2-dihydropyridin-3-yl)methyl)benzo[d][1,3]dioxole-5-carboxamide], for which the IC50 in test [1] came out at 22 nM; in test [2], 0.44 nM.
Consider `CSc1cc(C)[nH]c(=O)c1CNC(=O)c1cc(Cl)c2c(c1C)OC(C)([C@H]1CC[C@@H](N3CC(N4CCCC4)C3)CC1)O2` (single isomer, unassigned) [Compound 43, isomer 1, 7-chloro-2,4-dimethyl-N-((6-methyl-4-(methylthio)-2-oxo-1,2-dihydropyridin-3-yl)methyl)-2-(4-(3-(pyrrolidin-1-yl)azetidin-1-yl)cyclohexyl)benzo[d][1,3]dioxole-5-carboxamide], for which the IC50 was 59.3 nM in test [1] (Homo sapiens, 336 h) and 0.49 nM in test [2].
Take `CSc1cc(C)[nH]c(=O)c1CNC(=O)c1cc(Cl)c2c(c1C)OC(C)([C@H]1CC[C@@H](N3CC[Si](C)(C)CC3)CC1)O2` (single isomer, unassigned) [Compound 49, isomer 2, 7-chloro-2-(4-(4,4-dimethyl-1,4-azasilinan-1-yl)cyclohexyl)-2,4-dimethyl-N-((6-methyl-4-(methylthio)-2-oxo-1,2-dihydropyridin-3-yl)methyl)benzo[d][1,3]dioxole-5-carboxamide]: the IC50 in test [1] (Homo sapiens, SU-DHL-6, 336 h) turned out to be 38.9 nM; in test [2] it was 0.32 nM.
For `[2H]C([2H])(NC(=O)c1cc(Cl)c2c(c1C)OC(C)(C1CCC(NC3COC3)CC1)O2)c1c(SC)cc(C)[nH]c1=O` (single isomer, unassigned) [Compound 59, isomer 1, 7-chloro-2,4-dimethyl-N-((6-methyl-4-(methylthio)-2-oxo-1,2-dihydropyridin-3-yl)methyl-d2)-2-(4-(oxetan-3-ylamino)cyclohexyl)benzo[d][1,3]dioxole-5-carboxamide], the IC50 in test [1] (Homo sapiens, SU-DHL-6, 336 h) worked out at 10 nM; in test [2], 0.57 nM.
In the case of `[2H]C([2H])(NC(=O)c1cc(Cl)c2c(c1C)OC(C)([C@H]1CC[C@@H](N3CC4COCC4C3)CC1)O2)c1c(SC)cc(C)[nH]c1=O` (single isomer, unassigned) [Compound 60, isomer 1, 7-chloro-2,4-dimethyl-N-((6-methyl-4-(methylthio)-2-oxo-1,2-dihydropyridin-3-yl)methyl-d2)-2-(4-(tetrahydro-1H-furo[3,4-c]pyrrol-5(3H)-yl)cyclohexyl)benzo[d][1,3]dioxole-5-carboxamide], the IC50 in test [1] came out at 58.6 nM; in test [2], 0.18 nM.
As to `[2H]C([2H])(NC(=O)c1cc(Cl)c2c(c1C)OC(C)([C@H]1CC[C@@H](N3CC4COCC4C3)CC1)O2)c1c(SC)cc(C)[nH]c1=O` (single isomer, unassigned) [Compound 60, isomer 2, 7-chloro-2,4-dimethyl-N-((6-methyl-4-(methylthio)-2-oxo-1,2-dihydropyridin-3-yl)methyl-d2)-2-(4-(tetrahydro-1H-furo[3,4-c]pyrrol-5(3H)-yl)cyclohexyl)benzo[d][1,3]dioxole-5-carboxamide], the IC50 in test [1] was determined as 7.12 nM; in test [2] it was 0.34 nM.
